Where two headings read alike, the source gives them in different places.
Assays:
[1] = target: Full length wild-type cereblon CRBN (Homo sapiens (Human), UniProt Q96SW2); assay: fluorescence polarization (FP) assay, cereblon binding
Excerpt: Compound activity was monitored in a fluorescence polarization (FP) homogeneous assay using 1-[5-({2-[2-(2-{[2-(2,6-dioxopiperidin-3-yl)-1,3-dioxo-2,3-dihydro-1H-isoindol-4-yl]oxy}acetamido)ethoxy]ethyl}carbamoyl)pentyl]-3,3-dimethyl-2-[(1E,3E)-5-[(2E)-1,3,3-trimethyl-5-sulfo-2,3-dihydro-1H-indol-2-ylidene]penta-1,3-dien-1-yl]-3H-indol-1-ium-5-sulfonate as a fluorescent probe. Unless otherwise stated, all reagents were purchased from Sigma Aldrich. […] Full length wild-type cereblon CRBN (80.0 nM, 10 μL) was incubated in assay buffer containing 20 mM HEPES (pH 8.0), […], 0.5 mM TCEP and 0.05% Tween 20 in the presence or absence of compound (300 nL). Inhibitors were stored as 10 mM DMSO stocks in an inert environment (low humidity, dark, low oxygen, room temperature) using the Storage Pod System. […] Following incubation at room temperature for 30 min, the assay was initiated by dispensing the probe to a final concentration of 5 nM (2.5 nL of a 20 μM stock) using the Echo ESXX. […] The FP signal was subsequently normalized to the no-compound control (i.e., DMSO). Analysis and IC50 values were derived using Dotmatics (Dotmatics UK) software.

GSPT1 = GSPT1 (Homo sapiens (Human), UniProt P15170+Q96SW2); assay: immunofluorescence assay for GSPT1 degradation in CAL-51 cells (Example 4); type: cell-based
Chain of GSPT1 (P15170 whole entry): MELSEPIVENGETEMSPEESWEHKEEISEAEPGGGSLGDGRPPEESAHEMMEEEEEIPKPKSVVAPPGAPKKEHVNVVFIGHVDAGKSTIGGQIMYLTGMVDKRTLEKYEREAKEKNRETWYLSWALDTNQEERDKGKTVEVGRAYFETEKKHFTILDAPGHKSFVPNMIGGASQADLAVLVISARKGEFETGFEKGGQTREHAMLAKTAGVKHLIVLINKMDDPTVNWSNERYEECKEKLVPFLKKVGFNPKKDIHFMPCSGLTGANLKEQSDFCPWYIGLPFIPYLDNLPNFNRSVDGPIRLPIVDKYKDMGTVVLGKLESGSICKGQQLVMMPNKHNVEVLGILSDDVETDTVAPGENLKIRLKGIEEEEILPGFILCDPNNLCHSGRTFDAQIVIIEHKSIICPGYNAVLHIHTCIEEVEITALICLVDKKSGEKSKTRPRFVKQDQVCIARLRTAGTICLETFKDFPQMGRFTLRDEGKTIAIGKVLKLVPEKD
Chain of GSPT1 (Q96SW2 whole entry): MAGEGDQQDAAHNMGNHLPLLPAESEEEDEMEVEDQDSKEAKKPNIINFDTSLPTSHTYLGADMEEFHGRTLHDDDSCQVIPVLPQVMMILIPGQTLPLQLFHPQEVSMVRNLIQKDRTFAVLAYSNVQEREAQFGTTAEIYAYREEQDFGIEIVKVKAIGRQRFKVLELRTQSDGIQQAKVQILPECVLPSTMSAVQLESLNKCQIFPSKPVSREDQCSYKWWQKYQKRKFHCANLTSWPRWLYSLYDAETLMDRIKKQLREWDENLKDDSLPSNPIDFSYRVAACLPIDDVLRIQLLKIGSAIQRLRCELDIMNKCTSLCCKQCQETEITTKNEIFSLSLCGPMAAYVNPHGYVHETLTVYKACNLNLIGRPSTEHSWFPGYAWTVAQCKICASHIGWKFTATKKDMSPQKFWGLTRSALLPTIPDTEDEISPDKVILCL
Chain of GSPT1 (Q16531 2-1140 partner): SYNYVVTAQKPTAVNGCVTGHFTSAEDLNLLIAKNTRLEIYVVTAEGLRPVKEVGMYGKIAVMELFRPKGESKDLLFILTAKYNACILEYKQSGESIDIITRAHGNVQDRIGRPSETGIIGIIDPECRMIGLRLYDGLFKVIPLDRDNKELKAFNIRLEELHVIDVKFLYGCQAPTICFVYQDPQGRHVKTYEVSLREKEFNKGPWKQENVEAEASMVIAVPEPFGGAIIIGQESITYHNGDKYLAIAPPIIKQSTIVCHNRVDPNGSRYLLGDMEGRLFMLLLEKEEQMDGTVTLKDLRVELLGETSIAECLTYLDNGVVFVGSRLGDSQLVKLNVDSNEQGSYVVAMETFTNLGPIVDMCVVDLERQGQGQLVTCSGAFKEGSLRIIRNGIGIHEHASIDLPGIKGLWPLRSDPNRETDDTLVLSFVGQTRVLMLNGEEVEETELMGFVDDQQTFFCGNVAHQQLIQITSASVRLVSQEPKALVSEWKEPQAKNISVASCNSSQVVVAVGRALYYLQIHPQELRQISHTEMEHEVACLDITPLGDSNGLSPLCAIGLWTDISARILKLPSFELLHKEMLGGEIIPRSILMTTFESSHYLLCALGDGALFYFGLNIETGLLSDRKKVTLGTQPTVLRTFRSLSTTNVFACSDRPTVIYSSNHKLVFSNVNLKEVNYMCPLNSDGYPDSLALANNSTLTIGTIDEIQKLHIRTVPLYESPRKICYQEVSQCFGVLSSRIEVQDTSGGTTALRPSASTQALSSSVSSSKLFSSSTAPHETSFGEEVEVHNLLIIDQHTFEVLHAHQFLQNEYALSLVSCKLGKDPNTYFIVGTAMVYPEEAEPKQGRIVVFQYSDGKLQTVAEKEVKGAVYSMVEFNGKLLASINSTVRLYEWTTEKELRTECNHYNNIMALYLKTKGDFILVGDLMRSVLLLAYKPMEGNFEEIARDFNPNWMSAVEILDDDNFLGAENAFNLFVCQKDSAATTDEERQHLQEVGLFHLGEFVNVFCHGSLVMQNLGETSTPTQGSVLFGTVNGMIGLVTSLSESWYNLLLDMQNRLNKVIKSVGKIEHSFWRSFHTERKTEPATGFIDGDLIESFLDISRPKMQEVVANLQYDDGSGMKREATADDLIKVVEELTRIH
Description: The representative compounds were tested in an immunofluorescence assay for their activity to bind to degrade GSPT1. CAL-51 cells were purchased from DSMZ (cat. Number ACC302), sub-cultured in 90% Dulbecco's MEM (4.5 g/L glucose, Gibco 11965) +10% heat inactivated FBS (BioConcept, 2-01F136I) and incubated at 37° C., 5% CO2. For the assay, imaging microtiterplate Cell Carrier 96 Ultra (Perkin Elmer 6055302) were pre-coated with Fibronectin (Sigma F085, 30 μl at 0.2 μg/ml) in PBS (100 μl, Gibco 14190) for 45 min at room temperature, rinsed with PBS and CAL-51 cells (30 K cells/well) were plated and let to adhere overnight. Cells were treated with compounds typically using a serial dilution ranging from 30 μM to 0.1 nM for 6 hours. Compounds were stored at 10 mM DMSO stocks. Vehicle (DMSO), positive (CC-885, 10 μM) and rescue controls (positive control plus 0.2 μM bortezomib) were also included atthis stage. Cells were subsequently rinsed with PBS and fixed in 10% Formalin solution (50 μl, Sigma HT5011)) for 20 mins at room temperature. Following three consecutive PBS washes (100 μl), cells were permeabilized in 0.1% Triton X-100 in PBS (Sigma 93443, 50 μl) for 15 mins at room temperature. Following three further PBS washes, 50 μl blocking buffer (1% BSA, Sigma A4503, in PBS) was added for 45 min for signal-to-noise reduction.
Primary antibody (human GSPT1, Sigma HPA052488) was diluted in blocking buffer (dil.1/300, 35 μl/well) and incubated with the cells overnight at 4° C. After three PBS washes, Alexa-fluor 488 coupled secondary antibodies (Invitrogen, A32731, dil.1/1000), Alexa-fluor 647-Phalloidin (Invitrogen, A22287, dil.1/200) and DAPI (Thermo, #62248, dil.1/1000) were diluted in blocking buffer and incubated with the samples for 2 hours at room temperature. After three final PBS washes, samples were conserved in 100 μl PBS in the dark, until measurement. Image acquisition was performed on the Operetta High-Content Imager (Perkin-Elmer). Fluorescence intensity of Alexa-Fluor 488 (GSPT1), Alexa-Fluor 647 (Actin) and DAPI (Nucleus) were measured. For the determination of GSPT1 DC50 values, a custom algorithm implemented in the PerkinElmer image analysis software Harmony-Acapella® was developed. After user-defined setting of adjustment parameters, the analysis was run identically without human intervention for all image fields. DAPI staining of the nuclei was used to determine the location of cells using standard nuclei detection modules. Segmentation artifacts were removed by threshold-based filters for area, roundness and intensity. The outline of the cells was determined analogously from the sum of the normalized, smoothed DAPI and Actin channel, starting from each nucleus. The Alexa-Fluor 488 (GSPT1) signal intensity in each cell was finally measured, in order to obtain a Mean intensity per cell. GSPT1 degradation (DC50) was calculated after normalization to controls and data import in CDD vault Database, using non-linear regression.

[2] = 6 hours, read-out: Activity for GSPT1 degradation, Code (DC50)
[3] = GSPT1 degradation, read-out: DC50 value

Chain of Full length wild-type cereblon CRBN (Q96SW2 whole entry): as the sequence (Q96SW2 whole entry) above

IC50 ([1]; read-out: IC50 value) [nM] | DC50 (GSPT1; [2]) [nM] | DC50 (GSPT1; [3]) [nM] | IC50 ([1]; read-out: rFP IC50) [nM] | SMILES | IC50 ([1]; IC50 value) [nM] | DC50 (GSPT1; read-out: Activity for GSPT1 degradation, Code (DC50), 6 hours) [nM]
< 1100 | < 30 | ≤ 30 |  | Cc1ccccc1-c1ccc(NC(=O)OCc2ccc3c(c2)C(=O)N(C2CCC(=O)NC2=O)C3)cn1 (stereo not drawn) [Compound 86] |  | 
< 1100 | < 30 | ≤ 30 |  | COc1ccccc1-c1ccc(NC(=O)OCc2ccc3c(c2)C(=O)N(C2CCC(=O)NC2=O)C3)cn1 (stereo not drawn) [Compound 87] |  | 
< 1100 | < 30 | ≤ 30 |  | Cc1cc(NC(=O)OCc2ccc3c(c2)C(=O)N(C2CCC(=O)NC2=O)C3)cnc1-c1ccccc1 (stereo not drawn) [Compound 88] |  | 
< 1100 | > 300 |  |  | CN(C)C1CN(c2ccc(NC(=O)OCc3ccc4c(c3)C(=O)N(C3CCC(=O)NC3=O)C4)cn2)C1 (stereo not drawn) [Compound 89] |  | 
< 1100 | < 30 | ≤ 30 |  | Cc1ncc(NC(=O)OCc2ccc3c(c2)C(=O)N(C2CCC(=O)NC2=O)C3)cc1OC(F)(F)F (stereo not drawn) [Compound 91] |  | 
< 1100 | < 30 | ≤ 30 |  | O=C1CCC(N2Cc3ccc(COC(=O)Nc4ccc5c(c4)OCCC5)cc3C2=O)C(=O)N1 (stereo not drawn) [Compound 92] |  | 
< 1100 | 30 to 300 |  |  | O=C1CCC(N2Cc3ccc(COC(=O)Nc4cccc(OC5CC5)c4)cc3C2=O)C(=O)N1 (stereo not drawn) [Compound 93] |  | 
 | 30 to 300 |  | < 500 | O=C1CCC(N2Cc3ccc(COC(=O)Nc4cnc(N5CCCCC5)cn4)cc3C2=O)C(=O)N1 (stereo not drawn) [Compound 94] |  | 
< 1100 | > 300 |  |  | COc1ccccc1CNC(=O)OCc1ccc2c(c1)C(=O)N(C1CCC(=O)NC1=O)C2 (stereo not drawn) [Compound 97] |  | 
< 1100 | > 300 |  |  | O=C1CCC(N2Cc3ccc(COC(=O)NCc4ccccc4)cc3C2=O)C(=O)N1 (stereo not drawn) [Compound 98] |  | 
< 1100 | 30 to 300 |  |  | O=C1CCC(N2Cc3ccc(COC(=O)Nc4cc(CN5CC6CC5CO6)cc(OC(F)F)c4)cc3C2=O)C(=O)N1 (stereo not drawn) [Compound 100] |  | 
 | 30 to 300 |  | > 1700 | O=C1CCC(N2Cc3ccc(COC(=O)Nc4ccc(C5CC5(F)F)cc4)cc3C2=O)C(=O)N1 (stereo not drawn) [Compound 101] |  | 
< 1100 | > 300 |  |  | CC(NC(=O)OCc1ccc2c(c1)C(=O)N(C1CCC(=O)NC1=O)C2)c1ccccc1 (stereo not drawn) [Compound 102] |  | 
< 1100 | 30 to 300 |  |  | CC1COc2cc(NC(=O)OCc3ccc4c(c3)C(=O)N(C3CCC(=O)NC3=O)C4)ccc21 (stereo not drawn) [Compound 103] |  | 
 | 30 to 300 |  | > 1700 | O=C1CCC(N2Cc3ccc(COC(=O)Nc4ccc(C5CCC5)cc4)cc3C2=O)C(=O)N1 (stereo not drawn) [Compound 104] |  | 
< 1100 | 30 to 300 |  |  | O=C1CCC(N2Cc3ccc(COC(=O)Nc4ccc(C5CCC5)nc4)cc3C2=O)C(=O)N1 (stereo not drawn) [Compound 105] |  | 
< 1100 | 30 to 300 |  |  | O=C1CCC(N2Cc3ccc(COC(=O)Nc4cc(OCCN5CCOCC5)cc(OC(F)(F)F)c4)cc3C2=O)C(=O)N1 (stereo not drawn) [Compound 106] |  | 
 | > 300 |  | < 500 | O=C1CCC(N2Cc3ccc(COC(=O)Nc4ccc(N5CCC5)nc4)cc3C2=O)C(=O)N1 (stereo not drawn) [Compound 107] |  | 

SMILES | IC50 ([1]; read-out: IC50 value) [nM] | DC50 (GSPT1; [2]) [nM] | DC50 (GSPT1; [3]) [nM] | IC50 ([1]; read-out: rFP IC50) [nM] | IC50 ([1]; IC50 value) [nM] | DC50 (GSPT1; read-out: Activity for GSPT1 degradation, Code (DC50), 6 hours) [nM]
Cc1cc(NC(=O)OCc2ccc3c(c2)C(=O)N(C2CCC(=O)NC2=O)C3)cc(C)c1C#N (stereo not drawn) [Compound 108] |  | 30 to 300 |  | < 500 |  | 
Cc1ccc(NC(=O)OCc2ccc3c(c2)C(=O)N(C2CCC(=O)NC2=O)C3)cc1C#N (stereo not drawn) [Compound 110, (2-(2,6-dioxopiperidin-3-yl)-3-oxoisoindolin-5-yl)methyl(3-cyano-4-methylphenyl)carbamate] | < 500 |  | ≤ 30 | < 500 | < 1100 | < 30
